Active and inactive are the calls of the source.
Experiments:
[1] = target: Peroxisome proliferator-activated receptor gamma/Nuclear receptor coactivator 2 (Homo sapiens, UniProt P37231); assay: (§1) TR-FRET dose response biochemical High Throughput Screening assay for agonists of the steroid receptor coactivator 2 (SRC-2) recruitment by the peroxisome proliferator-activated receptor gamma (PPAR gamma): non-selective agonists. [Related pubchem assays: 1297, 1032 ]; format: functional
[2] = target: Peroxisome proliferator-activated receptor gamma/Nuclear receptor coactivator 3 (Homo sapiens, UniProt P37231); assay: as §1, with “3 (SRC-3)” for “2 (SRC-2)”, “1301 (Confirmation screen.), 1048 (Primary screen.)]” for “1297, 1032 ]”; format: functional
Chain of Peroxisome proliferator-activated receptor gamma/Nuclear receptor coactivator 3 (P37231 whole entry): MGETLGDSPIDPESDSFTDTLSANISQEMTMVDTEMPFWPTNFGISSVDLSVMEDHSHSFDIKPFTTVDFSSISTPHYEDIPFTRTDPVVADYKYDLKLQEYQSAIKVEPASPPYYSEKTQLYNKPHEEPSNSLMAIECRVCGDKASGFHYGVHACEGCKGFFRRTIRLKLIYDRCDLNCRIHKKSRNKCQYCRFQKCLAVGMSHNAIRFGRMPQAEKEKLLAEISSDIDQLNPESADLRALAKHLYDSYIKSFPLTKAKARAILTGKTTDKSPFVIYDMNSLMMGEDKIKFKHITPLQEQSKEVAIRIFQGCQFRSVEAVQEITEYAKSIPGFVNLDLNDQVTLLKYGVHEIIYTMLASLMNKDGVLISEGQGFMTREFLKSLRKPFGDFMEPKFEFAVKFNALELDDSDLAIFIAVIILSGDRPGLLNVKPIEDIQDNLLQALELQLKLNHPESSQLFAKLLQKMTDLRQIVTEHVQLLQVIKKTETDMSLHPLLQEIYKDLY
Chain of Peroxisome proliferator-activated receptor gamma/Nuclear receptor coactivator 3 (Q9Y6Q9 whole entry, further chain): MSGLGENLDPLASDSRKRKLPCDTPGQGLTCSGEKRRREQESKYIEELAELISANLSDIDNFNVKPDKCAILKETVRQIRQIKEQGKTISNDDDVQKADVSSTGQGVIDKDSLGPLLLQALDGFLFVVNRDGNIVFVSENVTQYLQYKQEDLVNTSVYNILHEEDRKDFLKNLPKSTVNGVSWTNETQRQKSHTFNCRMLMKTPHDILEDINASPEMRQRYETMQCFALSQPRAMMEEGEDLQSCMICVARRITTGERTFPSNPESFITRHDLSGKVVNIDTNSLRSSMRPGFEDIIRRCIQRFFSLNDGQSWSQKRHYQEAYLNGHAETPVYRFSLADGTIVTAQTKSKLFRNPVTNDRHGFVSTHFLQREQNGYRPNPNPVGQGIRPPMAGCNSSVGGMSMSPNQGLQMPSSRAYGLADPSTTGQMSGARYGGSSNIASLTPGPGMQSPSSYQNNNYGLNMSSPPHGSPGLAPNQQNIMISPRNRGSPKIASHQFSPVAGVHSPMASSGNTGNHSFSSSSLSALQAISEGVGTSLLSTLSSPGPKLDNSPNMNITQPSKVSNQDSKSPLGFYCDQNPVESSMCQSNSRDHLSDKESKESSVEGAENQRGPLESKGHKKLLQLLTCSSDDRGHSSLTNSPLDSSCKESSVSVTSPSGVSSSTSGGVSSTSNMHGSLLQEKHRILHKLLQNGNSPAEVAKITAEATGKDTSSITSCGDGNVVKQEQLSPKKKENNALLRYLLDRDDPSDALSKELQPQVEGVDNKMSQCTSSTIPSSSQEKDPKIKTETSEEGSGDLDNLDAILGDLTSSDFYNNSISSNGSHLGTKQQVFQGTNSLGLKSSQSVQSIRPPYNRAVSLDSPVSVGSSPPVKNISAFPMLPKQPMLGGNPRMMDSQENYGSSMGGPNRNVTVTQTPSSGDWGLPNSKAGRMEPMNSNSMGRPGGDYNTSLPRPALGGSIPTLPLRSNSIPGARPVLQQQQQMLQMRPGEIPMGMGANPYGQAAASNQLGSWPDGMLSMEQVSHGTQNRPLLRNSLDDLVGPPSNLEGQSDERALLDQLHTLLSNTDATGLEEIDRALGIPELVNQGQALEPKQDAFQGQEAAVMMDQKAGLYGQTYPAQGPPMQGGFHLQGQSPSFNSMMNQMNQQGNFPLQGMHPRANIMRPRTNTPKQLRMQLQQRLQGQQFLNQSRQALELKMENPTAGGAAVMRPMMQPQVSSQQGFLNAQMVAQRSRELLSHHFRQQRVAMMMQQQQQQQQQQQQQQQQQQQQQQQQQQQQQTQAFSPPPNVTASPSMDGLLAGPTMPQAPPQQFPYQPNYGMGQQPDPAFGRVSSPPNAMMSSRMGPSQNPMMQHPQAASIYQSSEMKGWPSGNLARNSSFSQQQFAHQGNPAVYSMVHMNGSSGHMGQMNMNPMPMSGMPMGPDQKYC

[3] = target: Peroxisome proliferator-activated receptor gamma/Nuclear receptor coactivator 1 (Homo sapiens, UniProt P37231); assay: as §1, with “1 (SRC-1)” for “2 (SRC-2)”, “assays (depositor defined):AID1300, AID1808, AID504735, AID631]” for “assays: 1297, 1032 ]”; format: protein assay
Hexokinase HKDC1 = Hexokinase HKDC1 (Homo sapiens, UniProt Q2TB90); assay: HKDC1 hexokinase activators, dose response, biochemical, W721R variant (AID 504730); format: functional
Hexokinase-1 = Hexokinase-1 (Homo sapiens, UniProt P19367); assay: hexokinase 1 activators, dose response, selectivity assay for HKDC1 activator project, biochemical (AID 504762); format: functional
Prothrombin = Prothrombin (Bos taurus, UniProt P00735); assay: thrombin inhibition, dose response, biochemical, fluorescence polarization, uHTS hits (AID 602369); format: functional
[4] = target: 72 kDa type IV collagenase (Homo sapiens, UniProt P08253); assay: Dose Response validation of uHTS RPN11 inhibitor hits using a MMP-2 Fluorescence assay.; format: functional
[5] = target: 26S proteasome non-ATPase regulatory subunit 14 (Homo sapiens, UniProt O00487); assay: inhibition of proteasome subunit RPN11 – biochemical, fluorescence polarization, uHTS hits, confirmation (AID 602368); format: functional
Bcl-2-related protein A1 = target: T1, Bcl-2-related protein A1 (Mus musculus, UniProt Q07440); format: functional;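 also: confirmatory dose–response counterscreen on Bfl-1, used to check hits from a UBC13 polyubiquitin inhibitor campaign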
T1 sequence (Q07440 whole entry): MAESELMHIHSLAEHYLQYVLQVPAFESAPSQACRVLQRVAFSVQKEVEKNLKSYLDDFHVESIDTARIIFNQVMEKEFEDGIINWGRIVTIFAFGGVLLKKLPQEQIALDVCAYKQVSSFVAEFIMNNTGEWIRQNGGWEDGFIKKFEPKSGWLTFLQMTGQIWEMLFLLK

[6] = target: T2, Ubiquitin-conjugating enzyme E2 N (Homo sapiens, UniProt P61088); format: functional
T2 sequence (P61088 whole entry): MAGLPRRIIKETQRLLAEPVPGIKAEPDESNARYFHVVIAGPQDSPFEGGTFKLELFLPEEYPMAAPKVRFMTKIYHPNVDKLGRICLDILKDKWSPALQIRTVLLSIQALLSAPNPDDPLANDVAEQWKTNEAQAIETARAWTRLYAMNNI

[7] = target: T2, Ubiquitin-conjugating enzyme E2 N; format: functional; remark: listed apart in the source
[8] = cytotoxicity in HEK-293T cells, dose response, cytotoxicity control for BCR NF-kB inhibitor project, luminescence, B-cell screen hits (AID 489021); format: functional, cell-based;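 also: HEK-293T cells carrying an NF-kB luciferase reporter; cells exposed to compound for about 14 hours before viability readout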
Cytochrome P450 1A2 = target: T3, Cytochrome P450 1A2 (Homo sapiens, UniProt P05177);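 also: PubChem cytochrome P450 panel assay, CYP1A2 panel member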
T3 sequence (P05177 whole entry): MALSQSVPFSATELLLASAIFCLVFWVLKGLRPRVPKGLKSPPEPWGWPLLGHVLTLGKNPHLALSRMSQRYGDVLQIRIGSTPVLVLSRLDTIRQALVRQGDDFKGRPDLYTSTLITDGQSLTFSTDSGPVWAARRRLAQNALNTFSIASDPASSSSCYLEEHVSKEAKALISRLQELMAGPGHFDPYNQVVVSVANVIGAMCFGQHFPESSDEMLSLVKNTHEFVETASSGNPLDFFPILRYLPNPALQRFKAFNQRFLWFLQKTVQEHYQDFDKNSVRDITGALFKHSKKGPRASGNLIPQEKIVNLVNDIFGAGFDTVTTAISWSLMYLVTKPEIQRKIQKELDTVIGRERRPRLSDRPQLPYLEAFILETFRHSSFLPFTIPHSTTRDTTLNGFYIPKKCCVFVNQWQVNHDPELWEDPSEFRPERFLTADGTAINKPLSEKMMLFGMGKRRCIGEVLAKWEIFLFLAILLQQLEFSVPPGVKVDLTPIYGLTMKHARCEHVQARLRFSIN

Cytochrome P450 2C19 = Cytochrome P450 2C19 (Homo sapiens, UniProt P33261); assay: Cytochrome panel assay with activity outcomes. Panel member name: p450-cyp2c19 Compounds with AC50 equal or less than 10 uM are considered active; format: functional; conditions: read-out: AC50
Cytochrome P450 3A4 = Cytochrome P450 3A4 (Homo sapiens, UniProt P08684);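 also: CYP3A4 tested as one member of a cytochrome P450 panel screen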
Cytochrome P450 2C9 = Cytochrome P450 2C9 (Homo sapiens, UniProt P11712)
[9] = target: T4, Alkaline phosphatase, tissue-nonspecific isozyme (Homo sapiens, UniProt P05186); assay: TNAP enzyme activators, dose response, selectivity assay for human IAP activator project, biochemical, TNAP isozyme, human IAP uHTS hits (AID 488886); format: functional;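 also: potency of compounds raising TNAP activity as a selectivity check on IAP activators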
T4 sequence (P05186 whole entry): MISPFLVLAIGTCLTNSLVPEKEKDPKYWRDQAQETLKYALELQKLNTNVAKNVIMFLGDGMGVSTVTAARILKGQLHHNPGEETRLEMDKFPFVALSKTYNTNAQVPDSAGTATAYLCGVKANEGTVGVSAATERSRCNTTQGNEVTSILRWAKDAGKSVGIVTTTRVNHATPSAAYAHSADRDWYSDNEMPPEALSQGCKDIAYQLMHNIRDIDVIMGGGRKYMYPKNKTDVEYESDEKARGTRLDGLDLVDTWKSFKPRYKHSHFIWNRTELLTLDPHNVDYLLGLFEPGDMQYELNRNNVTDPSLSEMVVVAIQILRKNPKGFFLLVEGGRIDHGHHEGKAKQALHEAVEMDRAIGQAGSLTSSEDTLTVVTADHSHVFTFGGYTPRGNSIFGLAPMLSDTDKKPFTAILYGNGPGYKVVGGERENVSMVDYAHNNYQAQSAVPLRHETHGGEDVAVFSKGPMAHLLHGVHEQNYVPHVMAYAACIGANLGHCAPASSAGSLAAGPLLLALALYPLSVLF

[10] = target: T5, Intestinal-type alkaline phosphatase (Homo sapiens, UniProt P09923); assay: human IAP activators, dose response, biochemical, luminescent, uHTS hits, set 2 (AID 488817); format: functional;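 also: potency of activators that raise enzyme activity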
T5 sequence (P09923 whole entry): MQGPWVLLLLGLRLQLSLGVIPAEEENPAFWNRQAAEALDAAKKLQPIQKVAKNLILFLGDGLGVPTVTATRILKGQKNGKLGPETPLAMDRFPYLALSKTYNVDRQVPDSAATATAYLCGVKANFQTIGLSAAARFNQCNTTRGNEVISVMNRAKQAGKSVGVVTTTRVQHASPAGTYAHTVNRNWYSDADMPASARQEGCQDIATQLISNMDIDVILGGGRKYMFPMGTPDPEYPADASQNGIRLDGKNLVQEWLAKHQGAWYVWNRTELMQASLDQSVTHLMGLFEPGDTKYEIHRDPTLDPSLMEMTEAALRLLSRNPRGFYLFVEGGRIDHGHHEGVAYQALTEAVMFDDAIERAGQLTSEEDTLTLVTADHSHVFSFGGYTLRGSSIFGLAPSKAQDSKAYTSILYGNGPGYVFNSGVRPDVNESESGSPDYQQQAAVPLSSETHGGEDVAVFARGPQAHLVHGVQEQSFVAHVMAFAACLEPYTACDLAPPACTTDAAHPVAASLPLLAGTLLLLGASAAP

[11] = target: T6, Long-chain-fatty-acid--AMP ligase FadD28 (Mycobacterium tuberculosis, UniProt P9WQ59); assay: Fluorescence polarization aasay to screen for inhibitors that compete for the binding of FadD28 to a bisubstrate Measured in Biochemical System Using Plate Reader - 2147-01_Inhibitor_Dose_CherryPick_Activity.; format: functional, Mycobacterium tuberculosis H37Rv
T6 sequence (P9WQ59 whole entry): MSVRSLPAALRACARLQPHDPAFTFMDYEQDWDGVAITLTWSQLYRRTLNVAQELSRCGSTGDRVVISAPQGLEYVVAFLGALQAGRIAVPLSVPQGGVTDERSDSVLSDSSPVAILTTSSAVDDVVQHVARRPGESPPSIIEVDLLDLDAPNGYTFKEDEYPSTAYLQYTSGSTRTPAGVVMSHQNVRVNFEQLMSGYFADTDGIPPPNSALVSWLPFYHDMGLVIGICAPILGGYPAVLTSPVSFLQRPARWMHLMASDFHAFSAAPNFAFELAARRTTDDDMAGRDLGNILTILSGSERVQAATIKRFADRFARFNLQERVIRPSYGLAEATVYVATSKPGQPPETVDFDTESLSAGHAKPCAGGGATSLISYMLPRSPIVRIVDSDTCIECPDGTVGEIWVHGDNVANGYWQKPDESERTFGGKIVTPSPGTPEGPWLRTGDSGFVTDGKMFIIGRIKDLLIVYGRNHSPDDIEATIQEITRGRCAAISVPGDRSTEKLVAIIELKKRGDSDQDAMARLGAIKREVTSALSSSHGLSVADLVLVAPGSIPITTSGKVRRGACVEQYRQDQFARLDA

[12] = target: T5, Intestinal-type alkaline phosphatase; assay: human intestinal alkaline phosphatase activators, dose response, biochemical, luminescence, uHTS hits (AID 463120); format: functional
[13] = target: Intestinal-type alkaline phosphatase (Mus musculus, UniProt P24822); assay: PubChem AID 488874; format: functional
Chain of Intestinal-type alkaline phosphatase (Mus musculus, UniProt P24822) (P24822 whole entry): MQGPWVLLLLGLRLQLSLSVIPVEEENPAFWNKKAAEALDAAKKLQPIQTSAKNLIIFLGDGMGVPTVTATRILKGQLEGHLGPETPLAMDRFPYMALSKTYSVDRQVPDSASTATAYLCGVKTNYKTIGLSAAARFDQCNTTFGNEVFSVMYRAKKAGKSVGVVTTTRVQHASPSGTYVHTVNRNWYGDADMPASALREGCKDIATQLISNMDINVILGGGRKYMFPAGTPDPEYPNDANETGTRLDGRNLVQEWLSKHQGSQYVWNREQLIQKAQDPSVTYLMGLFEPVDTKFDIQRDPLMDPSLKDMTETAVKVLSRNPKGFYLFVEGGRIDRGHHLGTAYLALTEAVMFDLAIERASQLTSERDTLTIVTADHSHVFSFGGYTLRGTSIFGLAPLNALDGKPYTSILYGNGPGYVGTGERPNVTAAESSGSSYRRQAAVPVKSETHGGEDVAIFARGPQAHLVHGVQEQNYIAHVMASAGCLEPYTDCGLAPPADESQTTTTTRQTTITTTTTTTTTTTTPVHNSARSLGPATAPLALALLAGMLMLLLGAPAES

Escherichia coli = assay: microbe, parasite or virus in culture

Chain of Peroxisome proliferator-activated receptor gamma/Nuclear receptor coactivator 2 (P37231 whole entry): as the sequence (P37231 whole entry) above
Chain of Peroxisome proliferator-activated receptor gamma/Nuclear receptor coactivator 2 (Q15596 whole entry, further chain): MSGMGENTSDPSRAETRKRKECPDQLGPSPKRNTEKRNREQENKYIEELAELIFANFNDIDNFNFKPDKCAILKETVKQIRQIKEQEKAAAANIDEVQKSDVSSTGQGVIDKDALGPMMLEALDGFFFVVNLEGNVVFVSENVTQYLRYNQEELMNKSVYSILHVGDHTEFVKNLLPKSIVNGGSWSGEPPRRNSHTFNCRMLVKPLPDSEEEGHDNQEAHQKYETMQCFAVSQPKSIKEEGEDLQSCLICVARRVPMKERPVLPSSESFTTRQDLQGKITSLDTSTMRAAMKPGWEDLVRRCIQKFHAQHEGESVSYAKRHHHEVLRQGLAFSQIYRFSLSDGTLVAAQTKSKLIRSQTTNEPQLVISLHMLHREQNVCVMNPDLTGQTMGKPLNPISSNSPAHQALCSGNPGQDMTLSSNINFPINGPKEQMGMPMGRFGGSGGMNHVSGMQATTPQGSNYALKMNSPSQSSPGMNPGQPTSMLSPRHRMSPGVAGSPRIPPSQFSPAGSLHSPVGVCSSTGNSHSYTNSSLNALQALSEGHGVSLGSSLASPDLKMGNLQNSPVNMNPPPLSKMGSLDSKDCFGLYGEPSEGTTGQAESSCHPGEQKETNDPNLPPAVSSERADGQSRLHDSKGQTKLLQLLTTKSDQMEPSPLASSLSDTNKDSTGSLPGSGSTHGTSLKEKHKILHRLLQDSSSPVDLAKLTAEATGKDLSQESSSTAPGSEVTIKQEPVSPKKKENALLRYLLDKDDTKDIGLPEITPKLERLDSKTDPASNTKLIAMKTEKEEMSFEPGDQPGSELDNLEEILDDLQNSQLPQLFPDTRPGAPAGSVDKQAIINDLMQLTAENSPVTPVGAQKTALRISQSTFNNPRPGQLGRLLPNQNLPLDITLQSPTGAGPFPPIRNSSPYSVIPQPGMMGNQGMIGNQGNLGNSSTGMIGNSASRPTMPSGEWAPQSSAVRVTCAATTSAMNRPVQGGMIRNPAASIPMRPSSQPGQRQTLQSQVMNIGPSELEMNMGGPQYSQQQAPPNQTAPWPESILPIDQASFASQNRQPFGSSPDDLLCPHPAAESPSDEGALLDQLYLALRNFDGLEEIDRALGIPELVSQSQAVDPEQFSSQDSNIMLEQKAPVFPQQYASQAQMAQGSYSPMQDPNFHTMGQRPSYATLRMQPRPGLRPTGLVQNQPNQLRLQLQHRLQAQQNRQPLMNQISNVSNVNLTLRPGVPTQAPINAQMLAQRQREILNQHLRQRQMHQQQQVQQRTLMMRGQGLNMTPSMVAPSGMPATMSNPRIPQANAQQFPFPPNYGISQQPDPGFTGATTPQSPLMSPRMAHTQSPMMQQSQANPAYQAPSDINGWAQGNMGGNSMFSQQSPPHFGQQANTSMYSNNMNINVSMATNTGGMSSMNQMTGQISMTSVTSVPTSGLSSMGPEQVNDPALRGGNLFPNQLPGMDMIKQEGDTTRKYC

## CCOC(=O)CSc1cc(=O)n(CC)c2ccccc12
[1]
  EC50: > 79.4 µM (not active)
[2]
  EC50: > 79.4 µM (not active)
[3]
  EC50: > 79.4 µM (inactive)

## COc1ccc(-c2[nH]c(-c3ccc(SC)cc3)nc2SCC(=O)Nc2nccs2)cc1
Hexokinase HKDC1
  EC50: 10.9 µM (active)
Hexokinase-1
  EC50: 16.3 µM (active)
Prothrombin
  IC50: 49.9 µM (active)
[4]
  IC50: > 100 µM (inactive)
[5]
  IC50: 19.6 µM (active)

## O=C(CCCn1c(=O)c2ccccc2n(Cc2cccc(F)c2)c1=O)NC1CCN(Cc2ccccc2)CC1
Bcl-2-related protein A1
  IC50: > 20 µM (inactive)
[6]
  IC50: 2.11 µM (active)
[7]
  IC50: 1.31 µM (active)

## CCN1CCN(C(=O)CSc2cc(=O)n(CC)c3ccccc23)CC1
[1]
  EC50: > 79.4 µM (not active)
[2]
  EC50: > 79.4 µM (not active)
[6]
  IC50: > 20 µM (inactive)
[8]
  IC50: > 80 µM (inactive)
[3]
  EC50: > 79.4 µM (inactive)

## Cc1cnc(CNc2cc(-c3ccccc3C(F)(F)F)ncn2)cn1
Cytochrome P450 1A2
  AC50: 25.1 µM (inconclusive)
Cytochrome P450 2C19
  AC50: 39.8 µM (inconclusive)
Cytochrome P450 3A4
  AC50: inconclusive
Cytochrome P450 2C9
  AC50: inconclusive

## CN(C)S(=O)(=O)c1cccc(NC(=S)NNC(=O)c2cc3ccccc3cc2O)c1
[9]
  EC50: 12.5 µM (active)
[10]
  EC50: 16.1 µM (active)
[11]
  AC50: 77.8 µM (active)
[12]
  EC50: 8.74 µM (active)
[13]
  IC50: 34.2 µM (active)

## CCc1ccc2c(COC(=O)C3CC(=O)N(CCc4ccccc4)C3)cc(=O)oc2c1 (centres undefined)
Escherichia coli
  AC50: 133 µM (active)

## COCCNc1nc2c(-c3cccc(C(F)(F)F)c3)nnn2c2ccccc12
Bcl-2-related protein A1
  IC50: > 20 µM (inactive)
[6]
  IC50: 10.3 µM (active)
[7]
  IC50: > 20 µM (inactive)

## Cc1ccc(S(=O)(=O)CCNC(=O)Cc2ccc(Cl)cc2)cc1
Escherichia coli
  AC50: 46.1 µM (active)

## CC(C)(C)OC(=O)N1CCC(NC(=O)c2[nH]cnc2C(=O)Nc2ccon2)CC1
[9]
  EC50: 13.9 µM (active)
[10]
  EC50: 13.3 µM (active)
[12]
  EC50: 10.1 µM (active)
[13]
  IC50: 47.2 µM (active)

From ChEMBL document CHEMBL1201862, “PubChem BioAssay data set” (2004)
